Source: PMC4764904 (Scientific Reports, 2016)
Where two headings read alike, the source gives them in different places. Where a SMILES comes first, the peptide text is derived from it. Where no end group is shown, it is not given here. [ ]: non-standard residue; d: D form. Cit = NC(=O)NCCC[C@H](N)C(=O)O; pGlu = O=C1CC[C@@H](C(=O)O)N1

Legend:
human GALR3 = molecular target: T1, human GALR3 (Homo sapiens, UniProt O60755); assay: SRE-luc reporter assay, GALR3; format: cell-based;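 further: luciferase activity read in cell lysates across rising peptide concentrations, EC50 being the agonist concentration giving half-maximal stimulation from a sigmoidal nonlinear fit, Gαqi routing Gi-coupled receptor signaling through Gq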
T1 construct: host or cells: HEK293 cells stably expressing Gαqi
T1 sequence (O60755 1-368): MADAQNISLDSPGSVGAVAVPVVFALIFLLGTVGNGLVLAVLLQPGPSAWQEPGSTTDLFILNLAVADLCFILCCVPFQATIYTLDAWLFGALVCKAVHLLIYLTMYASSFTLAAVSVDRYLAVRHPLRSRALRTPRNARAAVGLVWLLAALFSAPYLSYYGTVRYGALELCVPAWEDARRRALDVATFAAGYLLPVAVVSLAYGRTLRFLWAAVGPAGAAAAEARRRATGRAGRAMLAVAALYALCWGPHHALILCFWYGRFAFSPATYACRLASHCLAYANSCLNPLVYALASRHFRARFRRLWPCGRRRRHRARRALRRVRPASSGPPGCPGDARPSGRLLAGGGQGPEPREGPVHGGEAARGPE
Method: (§1) The generated mutant SPX peptides were incubated with cells expressing GALR2 and GALR3. […] The activities of the receptors were traced using the serum-response element-driven luciferase (SRE-luc) assay system.
(§2) The SRE-luc reporter vector and plasmid containing human GALR1, GALR2, or GALR3 were transfected into HEK293 cells that stably expressed Gqi protein. Cells were then treated with increasing concentrations of mutant peptides, and the receptor activities were determined using the SRE-luc reporter system.
(§3) HEK293 cells stably expressing Gαqi, which mediates Gαi-coupled receptor activation by stimulating Gαq-dependent signaling pathways[59], were maintained in Dulbecco’s modified Eagle’s medium (DMEM) supplemented with 10% FBS, 100 U/ml penicillin G, and 100 μg/ml streptomycin (Invitrogen). Cells were seeded in 48-well plates at a density of 2 × 10^4 cells per well, one day before transfection. A mixture containing 75 ng of the SRE-luc reporter construct, 75 ng of expression plasmid, and 2 μl of Effectene reagent (Qiagen, Chatsworth, CA, USA) was prepared and added to each well according to the manufacturer’s instructions. Cells were then maintained in serum-free DMEM for 16–18 h before treatment with the ligands. Approximately 48 h after transfection, cells were treated with the respective ligands for 6 h. Cells were lysed by the addition of 100 μl lysis buffer. The luciferase activity in 50 μl of cell extract was determined by a luciferase assay system according to the standard protocol for the Synergy 2 Multi-Mode Microplate Reader (BioTek, Winooski, VT, USA).
(§4) For in vitro studies data analysis was performed by nonlinear regression with a sigmoidal dose-response. The agonist concentrations that induced half-maximal stimulation (EC50) or half-maximal inhibition of binding (IC50) were calculated with GraphPad PRISM4 software (GraphPad Software Inc., San Diego, CA, USA). […] All data are presented as mean ± S.E. of at least three independent experiments and a P value of P < 0.05 was considered statistically significant.

human GALR2 = molecular target: T2, human GALR2 (Homo sapiens, UniProt O43603); assay: SRE-luc reporter assay, GALR2; format: cell-based;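 further: luciferase activity read in cell lysates after exposure to rising peptide concentrations, EC50 being the agonist level giving half-maximal stimulation from a sigmoidal nonlinear regression fit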
T2 construct: host or cells: HEK293 cells stably expressing Gαqi
T2 sequence (O43603 1-387): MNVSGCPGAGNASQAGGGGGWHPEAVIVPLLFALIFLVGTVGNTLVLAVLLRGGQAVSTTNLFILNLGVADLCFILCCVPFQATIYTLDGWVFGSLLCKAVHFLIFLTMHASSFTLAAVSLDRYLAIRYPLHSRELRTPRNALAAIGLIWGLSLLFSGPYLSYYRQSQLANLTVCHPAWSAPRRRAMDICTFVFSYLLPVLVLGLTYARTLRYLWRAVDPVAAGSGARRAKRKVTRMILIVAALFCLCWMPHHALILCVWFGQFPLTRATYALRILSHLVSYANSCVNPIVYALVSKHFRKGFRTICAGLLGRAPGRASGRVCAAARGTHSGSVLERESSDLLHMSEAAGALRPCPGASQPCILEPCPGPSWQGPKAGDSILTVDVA
Method: as §1, §2, §3, §4

[1] = Peptide stability in FBS by residual IP3 production; format: in vitro ADME, bovine
Method: To investigate the effects of the modifications on proteolytic susceptibility, the functional activity of peptides that were incubated in 100% serum at 37 °C for 0, 3, 6, 12, 24, 48, and 72 h was determined via inositol 1,4,5-triphosphate (IP3) production in GALR2-expressing cells (Fig. 4A–C and Table 3). […] In addition, dAla4 and dGln14 substitutions contribute to longer longevity of the peptide in serum. In an additional experiment, we examined the degradation rates of the Qu mutant, as well as the Qu mutant with an N-terminal modification and/or dAla4 and dGln14 substitutions.
Figure 4 Stability of SPX mutants in the presence of FBS (A) Qu analogs in FBS (B) and human serum (C). Potency of Qu mutants toward GALR2 (D) and GALR3 (E). For stability of SPX mutants, peptides (1 μM) were incubated in serum for 0, 3, 6, 12, 24, 48, and 72 hrs. The remaining activities of the peptides were determined by measuring IP3 production by HEK293 cells that express GALR2 after the indicated times. IP3 production was expressed as percent change, where 100% indicates IP3 production by WT SPX incubated in FBS or human serum for 0 h. For potency of Qu mutants toward GALR2 and GALR3, the SRE-luc reporter vector and plasmid containing human GALR2 or GALR3 were transfected into HEK293 cells that stably expressed Gqi protein. Cells were then treated with increasing concentrations of mutant peptides, and the receptor activities were determined using the SRE-luc reporter system.
To evaluate the stability of SPX and its analogs in FBS or human serum, peptides were incubated at an initial concentration of 1 μM in 100% serum at 37 °C for 0, 3, 6, 12, 24, 48, and 72 hours. Residual peptide activity was then assessed by measuring IP3 in HEK293 cells expressing GALR2. For the IP3 assay, cells were seeded in 12-well plates at a density of 2.5 × 10^5 cells per well, and then the next day, cells were transiently transfected with 1 μg/well of plasmid containing GALR2 using the Lipofectamine 2000 (Invitrogen) transfection reagent. The day following transfection, cells were incubated in M199 media containing 1% FBS, 1% L-glutamine, 1% penicillin/streptomycin, and 1 μCi/well of myo-^3H inositol for 20 h. After a 30-min incubation in buffer A (140 mM NaCl, 20 mM Hepes, 4 mM KCl, 8 mM D-glucose, 1 mM MgCl2, 1 mM CaCl2, 1 mg/ml free fatty acid bovine serum albumin (BSA), and 10 mM LiCl at pH 7.2), cells were treated with the agonist for 40 min at 37 °C. Media was removed, and the reactions were terminated by addition of 1 ml of 10 mM cold formic acid to each well. The plates were stored at 4 °C for 30 min, and the extracts were then transferred into 6-ml plastic tubes containing 500 μl AG1–8X anion exchange columns (BIO-RAD). The tubes were gently mixed with a vortexer, and the supernatants were removed by aspiration. Two washes with 1 ml of distilled water were performed followed by two additional washes with 60 mM ammonium formate/5mM sodium tetraborate. Tritiated inositol was separated from the column by elution with 1 ml of 1 M ammonium formate/0.1 M formic acid, and 800 μl from the elution were taken from each tube and transferred into 6-ml scintillation vials. Then, 2 ml of scintillation cocktail solution (Ultima Gold^TM, Perkin Elmer, Waltham MA, USA) was added to each sample. The radioactivity of [^3H]-myo-inositol samples was measured using a TRI carb 3100TR liquid scintillation analyzer (Packard).

[2] = HEK293-Gqi cells transfected with SRE-luc and human GALR3, 6 h ligand treatment, mean ± S.E. of at least three independent experiments, NM = not measurable, read-out: GALR3 EC50
[3] = HEK293-Gqi cells transfected with SRE-luc and human GALR2, 6 h ligand treatment, mean ± S.E. of at least three independent experiments, NM = not measurable, read-out: GALR2 EC50

Compound | EC50 (human GALR3; [2]) [nM] | EC50 (human GALR2; [3]) [nM] | Initial activity abolished after incubation in FBS ([1]; 12-h incubation in 100% FBS, 37 °C, peptide 1 μM, IP3 production in GALR2-expressing cells) [%] | Half-life activity (h) in FBS ([1]; peptide 1 μM in 100% FBS, 37 °C, 0, 3, 6, 12, 24, 48, 72 h, residual activity read as IP3 production ([3H]-inositol) in HEK293 cells expressing GALR2, mean ± S.E., at least three independent experiments) [h] | EC50 (human GALR3) [nM] | EC50 (human GALR2) [nM]
CSCC[C@H](NC(=O)[C@H](C)NC(=O)[C@H](CCC(N)=O)NC(=O)[C@@H]1CCCN1C(=O)[C@@H](NC(=O)[C@H](Cc1c[nH]c2ccccc12)NC(=O)[C@@H](N)CC(N)=O)[C@@H](C)O)C(=O)N[C@@H](CC(C)C)C(=O)N[C@@H](Cc1ccc(O)cc1)C(=O)N[C@H](CC(C)C)C(=O)N[C@@H](CCCCN)C(=O)NCC(=O)N[C@@H](C)C(=O)N[C@@H](CCC(N)=O)C(N)=O [dL10] | > 10000 | > 10000 |  |  |  | 
CSCC[C@H](NC(=O)[C@H](C)NC(=O)[C@H](CCC(N)=O)NC(=O)[C@@H]1CCCN1C(=O)[C@@H](NC(=O)[C@H](Cc1c[nH]c2ccccc12)NC(=O)[C@@H](N)CC(N)=O)[C@@H](C)O)C(=O)N[C@@H](CC(C)C)C(=O)N[C@@H](Cc1ccc(O)cc1)C(=O)N[C@@H](CC(C)C)C(=O)N[C@@H](CCCCN)C(=O)N[C@H](C)C(=O)N[C@@H](C)C(=O)N[C@@H](CCC(N)=O)C(N)=O [dA12] (H-NWTPQAMLYLK[dA]AQ-NH2) | 1410 ± 210 | 1230 ± 159 |  |  |  | 
NWTPQAALYLKGAQ-NH2 [A7] | 468 ± 69.6 | 38.9 ± 7.28 |  |  |  | 
CSCC[C@H](NC(=O)[C@H](C)NC(=O)[C@H](CCC(N)=O)NC(=O)[C@@H]1CCCN1C(=O)[C@@H](NC(=O)[C@H](Cc1c[nH]c2ccccc12)NC(=O)[C@@H](N)CC(N)=O)[C@@H](C)O)C(=O)N[C@@H](CC(C)C)C(=O)N[C@@H](Cc1ccc(O)cc1)C(=O)N[C@@H](CC(C)C)C(=O)N[C@@H](CCCCN)C(=O)NCC(=O)N[C@@H](C)C(=O)N[C@@H](CCC(N)=O)C(N)=O [WT, spexin, reference compound] | 112 ± 14.5 | 45.7 ± 5.9 | 80 | 4.1 ± 0.5 |  | 
CSCC[C@H](NC(=O)[C@H](C)NC(=O)[C@H](CCC(N)=O)NC(=O)[C@@H]1CCCN1C(=O)[C@@H](NC(=O)[C@H](Cc1c[nH]c2ccccc12)NC(=O)[C@@H](N)CC(N)=O)[C@@H](C)O)C(=O)N[C@@H](CC(C)C)C(=O)N[C@H](Cc1ccc(O)cc1)C(=O)N[C@@H](CC(C)C)C(=O)N[C@@H](CCCCN)C(=O)NCC(=O)N[C@@H](C)C(=O)N[C@@H](CCC(N)=O)C(N)=O [dY9] | > 10000 | > 10000 |  |  |  | 
NWTPQAALYLFGAQ-NH2 [A7F11] | > 10000 | 145 ± 27 |  |  |  | 
NWTPQAMLYLFGAQ-NH2 [F11] |  |  |  |  | 708 ± 119 | 49 ± 10.1
GWTPQAMLYLKGAQ-NH2 [G1] | 93.3 ± 20.9 | 36.3 ± 7.47 |  |  |  | 
NWTPQAMLYLKGPQ-NH2 [P13] | 380 ± 49.1 | 38.9 ± 5.8 |  |  |  | 
NWTPQAMLYLLGAQ-NH2 [L11] | 331 ± 62 | 36.3 ± 10 |  |  |  | 
CSCC[C@H](NC(=O)[C@H](C)NC(=O)[C@H](CCC(N)=O)NC(=O)[C@@H]1CCCN1C(=O)[C@@H](NC(=O)[C@H](Cc1c[nH]c2ccccc12)NC(=O)[C@@H]1CCC(=O)N1)[C@@H](C)O)C(=O)N[C@@H](CC(C)C)C(=O)N[C@@H](Cc1ccc(O)cc1)C(=O)N[C@@H](CC(C)C)C(=O)N[C@@H](CCCCN)C(=O)NCC(=O)N[C@@H](C)C(=O)N[C@@H](CCC(N)=O)C(N)=O [pQ1] ([pGlu]WTPQAMLYLKGAQ-NH2) | 61.7 ± 10.4 | 35 ± 7.82 |  |  |  | 
NWTPNAMLYLKGAQ-NH2 [N5] | 501 ± 184 | 61.7 ± 12.7 |  |  |  | 
CSCC[C@H](NC(=O)[C@H](C)NC(=O)[C@H](CCC(N)=O)NC(=O)[C@@H]1CCCN1C(=O)[C@@H](NC(=O)[C@H](Cc1c[nH]c2ccccc12)NC(=O)[C@@H](N)CCCNC(N)=O)[C@@H](C)O)C(=O)N[C@@H](CC(C)C)C(=O)N[C@@H](Cc1ccc(O)cc1)C(=O)N[C@@H](CC(C)C)C(=O)N[C@@H](CCCCN)C(=O)NCC(=O)N[C@@H](C)C(=O)N[C@@H](CCC(N)=O)C(N)=O [Cit1] (H-[Cit]WTPQAMLYLKGAQ-NH2) | 251 ± 65 | 61.7 ± 19 |  |  |  | 
CSCC[C@H](NC(=O)[C@H](C)NC(=O)[C@H](CCC(N)=O)NC(=O)[C@@H]1CCCN1C(=O)[C@H](NC(=O)[C@H](Cc1c[nH]c2ccccc12)NC(=O)[C@@H](N)CC(N)=O)[C@H](C)O)C(=O)N[C@@H](CC(C)C)C(=O)N[C@@H](Cc1ccc(O)cc1)C(=O)N[C@@H](CC(C)C)C(=O)N[C@@H](CCCCN)C(=O)NCC(=O)N[C@@H](C)C(=O)N[C@@H](CCC(N)=O)C(N)=O [dT3] | > 10000 | > 10000 |  |  |  | 
CSCC[C@H](NC(=O)[C@@H](C)NC(=O)[C@H](CCC(N)=O)NC(=O)[C@@H]1CCCN1C(=O)[C@@H](NC(=O)[C@H](Cc1c[nH]c2ccccc12)NC(=O)[C@@H](N)CC(N)=O)[C@@H](C)O)C(=O)N[C@@H](CC(C)C)C(=O)N[C@@H](Cc1ccc(O)cc1)C(=O)N[C@@H](CC(C)C)C(=O)N[C@@H](CCCCN)C(=O)NCC(=O)N[C@@H](C)C(=O)N[C@@H](CCC(N)=O)C(N)=O [dA6] | 316 ± 47.1 | 209 ± 27 |  |  |  | 
NWTPNAALYLFGAH-NH2 [N5A7F11H14] | 3020 ± 978 | 54.5 ± 10.8 |  |  |  | 
NWTLQAMLYLKGAQ-NH2 [L4] | 105 ± 17.6 | 58.9 ± 7.59 |  |  |  | 
NWTPNAALYLFGAQ-NH2 [N5A7F11] | > 10000 | 107 ± 20.1 |  |  |  | 
NWTPQAMGYLKGAQ-NH2 [G8] | 1230 ± 108 | 1020 ± 132 |  |  |  | 
NWTPQAMLYLKGAH-NH2 [Ha14] | 70.8 ± 10.5 | 53.7 ± 6.92 |  |  |  | 
